Here are results for 26 molecules from patent US20050026968A1, “Heterocyclic amides with anti-tuberculosis activity” (priority 2003, published 2005).

Converted amounts (≈) assume the structure as drawn. Like-named read-outs stand apart in the source and are kept apart here. Some results are limits rather than exact numbers.

For data set [1], the target named is UDP-galactose mutase (Glf) (Mycobacterium tuberculosis, UniProt P9WIQ1). As to the kind of experiment: microtitre plate based screen of Glf (enzymatic inhibition). The class given is biochemical. As to conditions: in words.
Chain of UDP-galactose mutase (Glf) (P9WIQ1 whole entry): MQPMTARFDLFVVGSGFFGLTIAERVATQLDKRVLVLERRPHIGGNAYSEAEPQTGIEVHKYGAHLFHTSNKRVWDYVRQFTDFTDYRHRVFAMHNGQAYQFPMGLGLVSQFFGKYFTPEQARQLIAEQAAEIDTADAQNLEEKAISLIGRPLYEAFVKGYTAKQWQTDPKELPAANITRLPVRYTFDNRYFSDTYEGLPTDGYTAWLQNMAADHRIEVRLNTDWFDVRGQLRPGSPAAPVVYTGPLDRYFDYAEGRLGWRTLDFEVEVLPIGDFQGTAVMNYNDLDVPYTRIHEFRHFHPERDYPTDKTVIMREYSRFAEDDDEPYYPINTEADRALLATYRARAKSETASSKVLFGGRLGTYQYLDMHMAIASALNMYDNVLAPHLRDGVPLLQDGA
Data set [2] can be described thus: Maximum Tolerated Dose (MTD), single oral dose. As to conditions: mice, oral gavage, escalating dose 100, 300 and 500 mg/kg. How it is done:
An assay for Maximum Tolerated Dose (MTD) was also utilized. […] Three different concentrations are tested, generally at 100, 300 and 500 mg/kg. The latter dose is about twice to five times the dose used for efficacy testing of the compound in mice. After 7 days of observation the mice are sacrificed and the organs are studied for any adverse effects. In case of abnormalities the organs are fixed in formalin and given for extensive pathology analysis.
Maximum tolerated dosing was performed on these selected compounds. An escalating dose of drug (100, 300 and 500 mg/kg) was given to mice by oral gavage.

A further data set deals with M. tuberculosis H37Ra. Briefly: MIC against M. tuberculosis H37Ra, micro broth dilution in microtiter plates. (Broth dilution looks for growth in wells or tubes with falling amounts of substance.)
The subject of a further data set is M. tuberculosis. The class given is in vivo, mice. As to conditions: in words.
Where [3] appears, read: Mycobacterium tuberculosis, H37RA, Table 4, M. tuberculosis H37Ra, MIC90.
Setting [4] is: Mycobacterium tuberculosis, H37RA, Table 6, M. tuberculosis H37Ra, MIC90.
[5] abbreviates: Mycobacterium tuberculosis, H37RA, 168 h, read-out: TB MIC, Table 1, M. tuberculosis H37Ra, 7 days, MIC90 (>90% inhibition of growth).
Setting [6] is: Mycobacterium tuberculosis, H37RA.
Setting [7] is: Mycobacterium tuberculosis, H37RA, Table 5, M. tuberculosis H37Ra, MIC90.

For `O=C(Nc1cccc(Cl)c1)c1ccc([N+](=O)[O-])o1` [Compound 10, 5-Nitro-furan-2-carboxylic acid(3-chloro-phenyl)-amide], in data set [1], the “enzymatic inhibition of Glf” value is listed as “best inhibitors of GIf”. The “maximum tolerated dosing, observed effect” value (“maximum tolerated dosing” below) in data set [2] is recorded as “no effect at the maximum dose”.

For `O=C(Nc1cccc(F)c1)c1ccc([N+](=O)[O-])o1` [Compound 12, 5-Nitro-furan-2-carboxylic acid(3-fluoro-phenyl)-amide], the “maximum tolerated dosing” value in data set [2] is reported as “no effect at the maximum dose”.

In the case of `COc1cccc(NC(=O)c2ccc([N+](=O)[O-])o2)c1` [Compound 13, 5-Nitro-furan-2-carboxylic acid(3-methoxy-phenyl)-amide], in data set [1], the “enzymatic inhibition of Glf” value was “best inhibitors of GIf”. Besides, the “maximum tolerated dosing” value in data set [2] was “some pathology at 500 mg/kg”.

Usually MIC stands for the lowest concentration found to suppress growth. For `CN1CCN(c2cccc(CNC(=O)c3ccc([N+](=O)[O-])o3)c2)CC1` [Compound 68, 5-Nitro-furan-2-carboxylic acid 3-(4-methyl-piperazin-1-yl)-benzylamide], the MIC against M. tuberculosis H37Ra (setting [3]) was 3.1 µg/mL (≈ 9 µM).

As for `O=C(NCc1ccc(N2CCSCC2)cc1)c1ccc([N+](=O)[O-])o1` [Compound 92, 5-Nitro-furan-2-carboxylic acid 4-thiomorpholin-4-yl-benzylamide], in the data set on M. tuberculosis H37Ra (setting [4]), the minimum inhibitory concentration (MIC) came to 0.05 µg/mL (≈ 0.144 µM).

Take `O=C(NC1CCCCC1)c1ccc([N+](=O)[O-])o1` [Compound 15, 5-Nitro-furan-2-carboxylic acid cyclohexylamide]: the MIC in the data set with M. tuberculosis H37Ra (setting [5]) is 3.1 µg/mL (≈ 13 µM).

Consider `O=C(NCCc1ccccc1)c1ccc([N+](=O)[O-])o1` [Compound 27, 5-Nitro-furan-2-carboxylic acid phenethyl-amide], for which the MIC in the data set on M. tuberculosis H37Ra (setting [5]) was 1.6 µg/mL (≈ 6.15 µM).

Take `COc1cccc(NC(=O)c2ccc(S(=O)(=O)c3ccccc3)o2)c1` [Compound 39, 5-Benzenesulfonyl-furan-2-carboxylic acid(3-methoxy-phenyl)-amide]: in the data set on M. tuberculosis H37Ra (setting [5]), the minimal inhibitory concentration (MIC) was found to be 6.25 µg/mL (≈ 17.5 µM).

Regarding `COc1ccc(CNC(=O)c2ccc([N+](=O)[O-])o2)cc1OC` [Compound 23, 5-Nitro-furan-2-carboxylic acid 3,4-dimethoxy-benzylamide], in data set [2], the “maximum tolerated dosing” value is recorded as “no effect at the maximum dose”. Also, the “oral activity against M. tuberculosis in the mouse infection model” value in the data set on M. tuberculosis is given as “significant oral activity”. Also, the MIC against M. tuberculosis H37Ra (setting [6]) was found to be 200 µg/mL (≈ 653 µM); in the data set on M. tuberculosis H37Ra (setting [5]), 0.2 µg/mL (≈ 0.653 µM). For the same molecule, the “MIC activity compared with classical TB drugs (FIG. 1)” value against M. tuberculosis H37Ra (against H37Ra, in words) was “as active as ethambutol and streptomycin”.

With `O=C(Nc1ccc(N2CCN(Cc3ccccc3)CC2)cc1)c1ccc([N+](=O)[O-])o1` [Compound 56, 5-Nitro-furan-2-carboxylic acid[4-(4-benzyl-piperazin-1-yl)-phenyl]-amide], the MIC against M. tuberculosis H37Ra (setting [3]) came to 0.8 µg/mL (≈ 1.97 µM).

`O=C(c1ccc([N+](=O)[O-])o1)N1Cc2ccccc2C1` [Compound 71] yielded an MIC with M. tuberculosis H37Ra (setting [3]) of 0.78 µg/mL (≈ 3.02 µM).

`COc1ccc(NC(=O)c2ccc([N+](=O)[O-])o2)cc1Cl` [Compound 1]: the “MIC against whole cells” value in the data set with M. tuberculosis H37Ra was 1.6 µg/mL (≈ 5.39 µM).

For the molecule `O=C(Nc1cccc(O)c1)c1ccc([N+](=O)[O-])o1` [Compound 35, 5-Nitro-furan-2-carboxylic acid(3-hydroxy-phenyl)-amide], the MIC with M. tuberculosis H37Ra (setting [5]) was determined as 1.6 µg/mL (≈ 6.45 µM).

The molecule `O=C(NCc1cccc(N2CCN(Cc3ccccc3)CC2)c1)c1ccc([N+](=O)[O-])o1` [Compound 69, 5-Nitro-furan-2-carboxylic acid 3-(4-benzyl-piperazin-1-yl)-benzylamide] showed an MIC with M. tuberculosis H37Ra (setting [3]) of less than 0.1 µg/mL.

On to `COc1ccc(CN2CCN(C(=O)c3ccc([N+](=O)[O-])o3)CC2)c(OC)c1` [Compound 89], for which the MIC against M. tuberculosis H37Ra (setting [7]) is less than 0.1 µg/mL.

One may read the MIC90 as the lowest concentration that inhibits either 90% of growth or 90% of the strains tested, depending on the study. Higher therefore signals lower susceptibility. In the data set on M. tuberculosis H37Ra (setting [6]), `CC[C@@H](CO)NCCN[C@@H](CC)CO` [ethambutol, reference compound] returned an MIC90 of 0.78 µg/mL (≈ 3.82 µM).

As to `CN1CCN(c2ccc(NC(=O)c3ccc([N+](=O)[O-])o3)cc2)CC1` [Compound 55, 5-Nitro-furan-2-carboxylic acid[4-(4-methyl-piperazin-1-yl)-phenyl]-amide], it took 6.25 µg/mL (≈ 18.9 µM) to inhibit growth against M. tuberculosis H37Ra (setting [3]) (MIC).

In turn, `O=C(c1ccc([N+](=O)[O-])o1)N1CCC(O)(Cc2ccccc2)CC1` [Compound 79] yielded an MIC in the data set on M. tuberculosis H37Ra (setting [7]) of 1.56 µg/mL (≈ 4.72 µM).

With `CN1CCN(c2ccc(CNC(=O)c3ccc([N+](=O)[O-])o3)cc2F)CC1` [Compound 100, 5-Nitro-furan-2-carboxylic acid 3-fluoro-4-(4-methyl-piperazin-1-yl)-benzylamide], the MIC with M. tuberculosis H37Ra (setting [4]) turned out to be 0.4 µg/mL (≈ 1.1 µM).

With `O=C(NCc1ccc(N2CCOCC2)c(F)c1)c1ccc([N+](=O)[O-])o1` [Compound 102, 5-Nitro-furan-2-carboxylic acid 3-fluoro-4-morpholin-4-yl-benzylamide], in the data set with M. tuberculosis H37Ra (setting [4]), it took 0.2 µg/mL (≈ 0.573 µM) to inhibit growth (MIC).

In the data set with M. tuberculosis H37Ra (setting [7]), `CC(=O)c1ccc(N2CCN(C(=O)c3ccc([N+](=O)[O-])o3)CC2)cc1` [Compound 91] had an MIC of less than 10.1 µg/mL.

In the data set with M. tuberculosis H37Ra (setting [7]), `COc1cccc(CN2CCN(C(=O)c3ccc([N+](=O)[O-])o3)CC2)c1` [Compound 86] registered an MIC of 1.56 µg/mL (≈ 4.52 µM).

For the molecule `CC(C)NC(=O)N1CCN(c2ccc(CNC(=O)c3ccc([N+](=O)[O-])o3)cc2)CC1` [Compound 106, 4-(4-{[(5-Nitro-furan-2-carbonyl)-amino]-methyl}-phenyl)-piperazine-1-carboxylic acid isopropylamide], in the data set on M. tuberculosis H37Ra (setting [4]), the lowest concentration to inhibit growth (MIC) was 0.0062 µg/mL (≈ 0.0149 µM).

Molecule `O=C(NCc1ccc2c(c1)OCO2)c1ccc([N+](=O)[O-])o1` [Compound 74] came in with a minimum inhibitory concentration (MIC) against M. tuberculosis H37Ra (setting [7]) of 0.15 µg/mL (≈ 0.517 µM).

In turn, `O=C(c1ccc([N+](=O)[O-])o1)N1CCN(c2ncccn2)CC1` [Compound 81] registered an MIC against M. tuberculosis H37Ra (Table 5, M. tuberculosis H37Ra, MIC90) of 0.1 µg/mL (≈ 0.33 µM).

On to `O=C(Nc1cccc(N2CCN(Cc3ccccc3)CC2)c1)c1ccc([N+](=O)[O-])o1` [Compound 61, 5-Nitro-furan-2-carboxylic acid[3-(4-benzyl-piperazin-1-yl)-phenyl]-amide], for which it took 12.5 µg/mL (≈ 30.8 µM) to inhibit growth against M. tuberculosis H37Ra (setting [3]) (MIC).
